Test system: Influenza A virus
Assay: Antiviral activity against Influenza virus A/WSN/33 expressing M2 S31N mutant channel infected in MDCK cells by plaque reduction assay
Format: functional, organism-based

`Brc1ccc(CNC23CC4CC(CC(C4)C2)C3)s1` was tested, and the EC50 was 1800 µM.

Source: ChEMBL document CHEMBL6121032, “Mining Druggable Sites in Influenza A Hemagglutinin: Binding of the Pinanamine-Based Inhibitor M090” (ACS Med Chem Lett, 2025)
